Source: patent US10189809B2, “SGC stimulators” (Ironwood Pharmaceuticals, Inc., priority 2010, dated 2019)
Like-named read-outs stand apart in the source and are kept apart here.

Legend:
[1] = target: T1, Human soluble guanylate cyclase enzyme (hsGC) (Homo sapiens (Human), UniProt Q02108+Q02153); test: Purified human sGC enzyme activity assay; type: biochemical; conditions: for sGC Enzyme (fold increase at 30 μM) / sGC Enzyme (specific activity at 30 μM) / sGC Enzyme (fold increase at 30 μM without SNP): 30 μM compound; for sGC Enzyme (fold increase at 30 μM): without the addition of SNP; for sGC Enzyme (specific activity at 10 μM) / sGC Enzyme (fold increase at 10 μM without SNP): 10 μM compound
In short: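 Values are fold-change of sGC specific activity, nmoles cGMP per mg enzyme per min, relative to DMSO controls. Reactions: 5 ng human enzyme, 300 μM GTP, 1 mM IBMX, 2 mM MgCl2/DTT, 0.1 M Tris pH 8.0, compound 10 or 30 μM final, 37° C for 30 minutes, methanol quench. cGMP read against a 0.078-10 μM final standard curve.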

[2] = target: T1, Human soluble guanylate cyclase enzyme (hsGC); test: Purified human sGC enzyme synergy assay in the presence of 1 μM sodium nitroprusside (SNP); type: biochemical; conditions: for sGC Enzyme (fold increase at 30 μM with SNP): 30 μM compound; for sGC Enzyme (fold increase at 10 μM with SNP): 10 μM compound
Description: Human soluble guanylate cyclase enzyme (hsGC) obtained from Enzo Inc. (P/N: ALX-201-177) was used to evaluate the activity of test compounds. The assay reactions contained 0.1 M Tris (pH 8.0), 0.5 mg/mL BSA (pH 8.0), 2 mM DTT, 2 mM MgCl2, 300 μM GTP, 1 mM 3-isobutyl-1-methylxanthine (IBMX) and 5 ng human soluble guanylate cyclase enzyme. Test compounds in DMSO were then added (2 μL, 10 or 30 μM final concentration) and incubated (200 μL, 96-well plate format) at 37° C. for 30 minutes. The controls were carried out using 2 μL DMSO. After the 30 minute incubation, the reaction was stopped with the addition of 200 μL of cold methanol. The plate was then centrifuged at 3,200 rpm for 10 minutes at room temperature. Supernatants (200 μL) were collected and transferred to a new 96 well plate for analysis.
An 8 point cGMP (Sigma-Aldrich P/N: G6129) standard curve was prepared in assay buffer ranging from 0.156-20 μM. Samples for the cGMP standard curve were then diluted with an equal volume of methanol resulting in final cGMP concentrations of 0.078-10 μM.
The cGMP standard curve was generated using GraphPad Prism Software.
Calculations: Specific Activity was determined by the amount of cGMP formed (nmoles) per mg of sGC per min. Enzyme “fold-change” was calculated by dividing Specific Activity for test compounds by Specific Activity of DMSO controls.
Enzyme assays were performed as described above, but was done in the presence of 1 μM sodium nitroprusside (SNP).

[3] = target: soluble guanylate cyclase (sGC) (Homo sapiens (Human), UniProt Q02108+Q02153); test: sGC-HEK-cGMP assay run with SNP incubation (HEK WC assay); type: cell-based
In short: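 EC50 values derive from concentration-response curves of intracellular cGMP in HEK293 cells, which express sGC endogenously. Compound and sodium nitroprusside were co-incubated 10 min at 37 °C after a 15-min 0.5 mM IBMX step, with 0.1 M HCl lysis and 1% DMSO vehicle.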

[4] = read-out: HEK WC Assay (% Emax at 10 uM/with 10 uM SNP)
[5] = read-out: HEK WC Assay (% Emax at 30 uM/with 10 uM SNP)

soluble guanylate cyclase (sGC), sequence (Q02153 whole entry): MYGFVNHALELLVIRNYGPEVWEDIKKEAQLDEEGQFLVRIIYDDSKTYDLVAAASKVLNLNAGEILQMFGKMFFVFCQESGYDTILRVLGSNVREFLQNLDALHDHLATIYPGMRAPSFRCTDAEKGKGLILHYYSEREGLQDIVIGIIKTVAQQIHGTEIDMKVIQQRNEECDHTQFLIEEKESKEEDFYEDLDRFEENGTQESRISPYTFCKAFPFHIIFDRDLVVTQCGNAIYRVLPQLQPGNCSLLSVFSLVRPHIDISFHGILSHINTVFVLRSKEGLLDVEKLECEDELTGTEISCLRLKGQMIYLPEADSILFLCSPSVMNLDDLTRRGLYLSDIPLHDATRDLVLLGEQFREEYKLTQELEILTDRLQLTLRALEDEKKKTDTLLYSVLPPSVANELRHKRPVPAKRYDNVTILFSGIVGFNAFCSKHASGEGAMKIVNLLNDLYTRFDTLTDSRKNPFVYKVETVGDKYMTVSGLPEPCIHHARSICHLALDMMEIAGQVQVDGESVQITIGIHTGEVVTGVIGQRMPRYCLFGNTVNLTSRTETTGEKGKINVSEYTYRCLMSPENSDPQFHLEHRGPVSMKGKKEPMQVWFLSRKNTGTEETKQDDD
soluble guanylate cyclase (sGC), sequence (Q02108 whole entry): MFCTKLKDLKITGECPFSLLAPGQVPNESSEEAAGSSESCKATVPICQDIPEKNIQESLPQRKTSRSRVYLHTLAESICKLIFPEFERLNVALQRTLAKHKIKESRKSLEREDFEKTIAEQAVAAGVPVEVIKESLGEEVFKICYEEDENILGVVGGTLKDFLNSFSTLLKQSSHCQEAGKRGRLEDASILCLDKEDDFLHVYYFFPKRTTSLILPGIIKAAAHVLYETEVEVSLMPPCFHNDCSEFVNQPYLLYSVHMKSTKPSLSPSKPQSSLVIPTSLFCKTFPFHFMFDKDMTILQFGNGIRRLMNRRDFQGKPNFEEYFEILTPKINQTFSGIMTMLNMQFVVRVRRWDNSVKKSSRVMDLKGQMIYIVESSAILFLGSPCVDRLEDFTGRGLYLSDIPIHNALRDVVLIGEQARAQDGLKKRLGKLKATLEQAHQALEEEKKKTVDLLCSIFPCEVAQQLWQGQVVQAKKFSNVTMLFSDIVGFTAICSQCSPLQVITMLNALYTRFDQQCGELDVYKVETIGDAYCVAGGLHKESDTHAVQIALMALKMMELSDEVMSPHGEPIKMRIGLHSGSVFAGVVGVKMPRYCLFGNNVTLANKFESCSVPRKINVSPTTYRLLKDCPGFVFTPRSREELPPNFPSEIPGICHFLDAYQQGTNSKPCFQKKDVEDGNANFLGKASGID
T1 sequence (Q02153 whole entry): as the sequence (Q02153 whole entry) above
T1 sequence (Q02108 whole entry): as the sequence (Q02108 whole entry) above

| sGC Enzyme (fold increase at 30 μM) [1] | sGC Enzyme (fold increase at 30 μM with SNP) ([2]; with the addition of SNP) | Emax at 10 µM ([3]; read-out: HEK WC Assay (% Emax at 10 μM/with 10 uM SNP)) [%] | Emax at 30 µM ([3]; read-out: HEK WC Assay (% Emax at 30 μM/with 10 uM SNP)) [%] | Emax at 10 µM [3, 4] [%] | Emax at 30 µM [3, 5] [%] | sGC Enzyme (specific activity at 10 μM) [1] | sGC Enzyme (fold increase at 10 μM without SNP) [1] | sGC Enzyme (specific activity at 30 μM) [1] | sGC Enzyme (fold increase at 30 μM without SNP) [1] | sGC Enzyme (fold increase at 10 μM with SNP) ([2]; with 1 μM SNP) | sGC Enzyme (fold increase at 30 μM with SNP) ([2]; with 1 μM SNP) | Structure (SMILES) |
| --- | --- | --- | --- | --- | --- | --- | --- | --- | --- | --- | --- | --- |
| C (C = 5 to <10 fold increase) | C (C = 5 to <10 fold increase) |  |  |  |  |  |  |  |  |  |  | Nc1nc(-c2cc(-c3ccon3)n(Cc3ccccc3F)n2)ncc1N1CCOCC1 [Compound I-139] |
| C (C = 5 to <10 fold increase) | D (D = 10 to <30 fold increase) |  |  |  |  |  |  |  |  |  |  | Nc1nc(-c2cc(-c3ccon3)n(Cc3ccccc3F)n2)ncc1-c1ccsc1 [Compound I-121] |
| B (B = 2 to <5 fold increase) | D (D = 10 to <30 fold increase) |  |  |  |  |  |  |  |  |  |  | Nc1nc(-c2cc(-c3ccon3)n(Cc3ccccc3F)n2)ncc1N1CCCC1 [Compound I-129] |

The next lines start with the molecule.

| Structure (SMILES) | sGC Enzyme (fold increase at 30 μM) [1] | sGC Enzyme (fold increase at 30 μM with SNP) ([2]; with the addition of SNP) | Emax at 10 µM ([3]; read-out: HEK WC Assay (% Emax at 10 μM/with 10 uM SNP)) [%] | Emax at 30 µM ([3]; read-out: HEK WC Assay (% Emax at 30 μM/with 10 uM SNP)) [%] | Emax at 10 µM [3, 4] [%] | Emax at 30 µM [3, 5] [%] | sGC Enzyme (specific activity at 10 μM) [1] | sGC Enzyme (fold increase at 10 μM without SNP) [1] | sGC Enzyme (specific activity at 30 μM) [1] | sGC Enzyme (fold increase at 30 μM without SNP) [1] | sGC Enzyme (fold increase at 10 μM with SNP) ([2]; with 1 μM SNP) | sGC Enzyme (fold increase at 30 μM with SNP) ([2]; with 1 μM SNP) |
| --- | --- | --- | --- | --- | --- | --- | --- | --- | --- | --- | --- | --- |
| Cc1cccc(-c2cc(-c3ncccn3)n(Cc3ccccc3F)n2)n1 [Compound I-81, 2-(1-(2-fluorobenzyl)-3-(6-methylpyridin-2-yl)-1H-pyrazol-5-yl)pyrimidine] | A (A = no increase to <2 fold increase) | A (A = no increase to <2 fold increase) | 0 to 10 | 0 to 10 |  |  |  |  |  |  |  |  |
| Cc1nnc(-c2cc(-c3ccccn3)nn2Cc2ccccc2F)o1 [Compound I-46] |  |  |  |  | 0 to 10 | 0 to 10 | C (C = 100 to <200) | A (A = no increase to <2 fold increase) | D (D = 200 to <500) | A (A = no increase to <2 fold increase) | A (A = no increase to <2 fold increase) | A (A = no increase to <2 fold increase) |
| Cc1ccc(-c2cc(-c3ncccn3)nn2Cc2ccccc2F)cc1 [Compound I-65] |  |  |  |  | 0 to 10 | 0 to 10 | B (B = 50 to <100) | B (B = 2 to <5 fold increase) | C (C = 100 to <200) | B (B = 2 to <5 fold increase) | B (B = 2 to <5 fold increase) | C (C = 5 to <10 fold increase) |
| COc1ccccc1-c1cc(-c2ccccn2)nn1Cc1ccccc1F [Compound I-36] |  |  |  |  |  |  | C (C = 100 to <200) | A (A = no increase to <2 fold increase) | C (C = 100 to <200) | A (A = no increase to <2 fold increase) | A (A = no increase to <2 fold increase) | A (A = no increase to <2 fold increase) |
| Fc1ccccc1Cn1nc(-c2ccccn2)cc1-c1csc2ccccc12 [Compound I-18] |  |  |  |  |  |  | C (C = 100 to <200) | A (A = no increase to <2 fold increase) | C (C = 100 to <200) | A (A = no increase to <2 fold increase) | A (A = no increase to <2 fold increase) | A (A = no increase to <2 fold increase) |
